≈ marks a conversion by molar mass, not a printed value. Where “and” joins values, the source holds several entries; their conditions need not be identical. Equal values may be shown once. Read-outs that look alike come from different tables or passages of the source.
Key:
TNF-α production = experiment: ELISA of TCR-induced TNF-α production by APBTs; format: cell-based, human
Protocol: (§1) The cells were then stimulated with plate-bound 2 μg/ml of anti-CD3 (Biolegend) for 24 hours. Protein concentrations of IL-2, IFN-γ, IL-10, and TNF-α in the media supernatants were measured by standard TMB ELISA.
(§2) Cells were plated on 2 μg/ml anti-CD3 coated plates for 24 hours. Extracellular cytokine production for (A) IFN-γ, (B) IL-2, (C) IL-10, or (D) TNFα was measured by ELISA in 3 independent experiments with different human donors. To statistically confirm that GML is suppressing cytokine production without serum, Student t’s test was done by comparing EtOH treated groups with GML treated groups under the same serum free environment, indicated by the black bars, with # denoting p<0.05.

IL-10 production = experiment: ELISA of TCR-induced IL-10 production by APBTs; format: cell-based, human
Protocol: as §1
(§3) Cells were plated on 2 μg/ml anti-CD3 coated plates for 24 hours. Extracellular cytokine production for (A) IFN-γ, (B) IL-2, (C) IL-10, or (D) TNFα was measured by ELISA in 3 independent experiments with different human donors.

[1] = cited from earlier work
IFN-γ production = experiment: ELISA of TCR-induced IFN-γ production by APBTs; format: cell-based, human
Protocol: as §1, §3

IL-2 production = experiment: ELISA of TCR-induced IL-2 production by APBTs; format: cell-based, human
Protocol: as §1, §2

[2] = system: AKT phosphorylation at threonine 308 and serine 473; experiment: TCR-induced AKT phosphorylation by immunoblotting in APBTs; format: cell-based, human
Protocol: The cells were then incubated on ice with 2 μg/ml anti-CD3 for 30 minutes. […] Cells were then lysed with 2X sample buffer, heated to 95°C, and sonicated.
Cell lysates were separated by polyacrylamide gel electrophoresis and transferred to PVDF. The membranes were blocked in 0.5X SEA BLOCK blocking buffer diluted in PBS. Primary antibodies were incubated overnight at 4°C. Secondary antibodies were incubated with the membrane for 30 minutes at room temperature and then imaged using Licor Odyssey (Lincoln, NE, USA). At least four independent replicates with different human donors were performed for each experiment. Immunoblot band intensity was quantified using Odyssey’s v3.0 software with the intensity of the phospho-specific antibody normalized to the intensity of the GAPDH antibody. To minimize variability between human donors, band intensities were further normalized to maximal band intensity of ethanol vehicle control. The following antibodies were used for immunoblotting: AKT pThr 308 (Cell Signaling), AKT pS473 (Invitrogen), GAPDH (Meridian Life Sciences), and IRDye 800CW or IRDye680-conjugated secondary antibodies (Thermo Scientific).
Cells were stimulated by crosslinking 2 μg/ml of anti-CD3 for various times. Phosphorylation of AKT at threonine 308 and serine 473 were assessed by immunoblotting.

[3] = system: PLC-γ1 pY783 microclusters; experiment: TIRF microscopy of PLC-γ1 microcluster formation in APBTs; format: cell-based, human
Protocol: (§4) APBTs were stimulated in the presence of 0.1% ethanol control or 10 μg/ml GML with plate-bound anti-CD3 on glass coverslips, fixed with 4% paraformaldehyde, permeabilized with 0.25% Triton-X, and stained as described below. To detect microcluster formation of TCR signaling proteins, antibodies specific for LAT pY226 (BD Pharmingen), PLC-γ pY783 (Cell Signaling, and total AKT (Cell signaling) were incubated with fixed and permeabilized cells overnight for 4°C. Subsequently, conjugated secondary antibodies Dylight Goat anti-rabbit IgG and DyLight 568 Goat anti-rabbit IgG (Biolegend) as well as Alexa Fluor 488 goat anti-mouse IgG1 (Thermo Fisher) were incubated with the cells at room temperature for 2 hours. All images were captured by the Leica AM TIRF MC system using 100x magnification oil immersion objective lens at room temperature at the University of Iowa Central Microscopy Research Facility.
(§5) TIRF microscopy images were processed and analyzed using ImageJ. Quantification of membrane clustering was done by measuring mean pixel intensity in the […] of cells for 60 cells total from at least 3 independent experiments. Similar quantification methods have been used in other published reports.
(§6) (A). […] Pixel intensities of median axis of each cell in images obtained in (A) were quantified and averaged using ImageJ. […]

[4] = molecular target: T1, bovine serum albumin (BSA) (Bos taurus, UniProt P02769); experiment: Isothermal titration calorimetry with bovine serum albumin; format: binding
T1 construct: purchased Sigma Aldrich
T1 sequence (P02769 25-607): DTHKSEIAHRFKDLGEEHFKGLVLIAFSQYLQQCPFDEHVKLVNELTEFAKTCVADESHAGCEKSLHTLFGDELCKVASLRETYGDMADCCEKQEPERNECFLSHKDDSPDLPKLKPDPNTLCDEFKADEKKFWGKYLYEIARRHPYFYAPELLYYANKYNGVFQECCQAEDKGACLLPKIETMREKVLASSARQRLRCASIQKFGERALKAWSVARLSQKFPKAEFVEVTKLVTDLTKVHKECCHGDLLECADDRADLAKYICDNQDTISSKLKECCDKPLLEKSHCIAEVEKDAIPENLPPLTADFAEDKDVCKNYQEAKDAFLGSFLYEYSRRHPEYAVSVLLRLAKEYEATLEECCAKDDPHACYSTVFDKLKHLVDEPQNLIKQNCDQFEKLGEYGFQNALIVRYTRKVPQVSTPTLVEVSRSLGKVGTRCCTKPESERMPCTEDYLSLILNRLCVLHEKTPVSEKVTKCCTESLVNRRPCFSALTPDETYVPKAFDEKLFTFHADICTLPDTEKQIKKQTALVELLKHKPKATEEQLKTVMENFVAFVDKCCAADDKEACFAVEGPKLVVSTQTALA
Protocol: (§7) Supplementary file pone.0165083.s001.pdf: S1 Fig ITC curves of GML with various mammalian albumins. 150μM of GML was injected incrementally into the sample chamber containing 5μM of mammalian albumins. […] (PDF) Click here for additional data file.

pig serum albumin (PSA) = molecular target: T2, pig serum albumin (PSA) (Sus scrofa, UniProt P08835); experiment: Isothermal titration calorimetry with pig serum albumin; format: binding
T2 construct: purchased Sigma Aldrich
T2 sequence (P08835 25-607): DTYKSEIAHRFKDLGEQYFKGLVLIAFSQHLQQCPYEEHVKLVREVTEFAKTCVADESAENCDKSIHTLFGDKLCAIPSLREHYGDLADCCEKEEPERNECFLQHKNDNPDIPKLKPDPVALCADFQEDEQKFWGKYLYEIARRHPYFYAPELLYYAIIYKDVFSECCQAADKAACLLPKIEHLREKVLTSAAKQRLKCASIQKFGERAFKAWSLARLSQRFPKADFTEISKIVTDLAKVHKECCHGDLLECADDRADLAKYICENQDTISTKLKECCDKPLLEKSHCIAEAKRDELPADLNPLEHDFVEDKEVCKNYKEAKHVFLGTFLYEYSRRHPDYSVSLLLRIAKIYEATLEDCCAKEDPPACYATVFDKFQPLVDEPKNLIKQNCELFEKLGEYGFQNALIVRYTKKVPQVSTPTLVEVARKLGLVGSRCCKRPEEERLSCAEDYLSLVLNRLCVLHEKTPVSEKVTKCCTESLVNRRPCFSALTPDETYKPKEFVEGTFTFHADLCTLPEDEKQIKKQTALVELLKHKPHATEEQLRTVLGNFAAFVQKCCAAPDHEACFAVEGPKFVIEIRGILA
Protocol: as §7

[5] = molecular target: T3, mouse serum albumin (MSA) (Mus musculus, UniProt P07724); experiment: Isothermal titration calorimetry with mouse serum albumin; format: binding
T3 construct: purchased Sigma Aldrich
T3 sequence (P07724 25-608): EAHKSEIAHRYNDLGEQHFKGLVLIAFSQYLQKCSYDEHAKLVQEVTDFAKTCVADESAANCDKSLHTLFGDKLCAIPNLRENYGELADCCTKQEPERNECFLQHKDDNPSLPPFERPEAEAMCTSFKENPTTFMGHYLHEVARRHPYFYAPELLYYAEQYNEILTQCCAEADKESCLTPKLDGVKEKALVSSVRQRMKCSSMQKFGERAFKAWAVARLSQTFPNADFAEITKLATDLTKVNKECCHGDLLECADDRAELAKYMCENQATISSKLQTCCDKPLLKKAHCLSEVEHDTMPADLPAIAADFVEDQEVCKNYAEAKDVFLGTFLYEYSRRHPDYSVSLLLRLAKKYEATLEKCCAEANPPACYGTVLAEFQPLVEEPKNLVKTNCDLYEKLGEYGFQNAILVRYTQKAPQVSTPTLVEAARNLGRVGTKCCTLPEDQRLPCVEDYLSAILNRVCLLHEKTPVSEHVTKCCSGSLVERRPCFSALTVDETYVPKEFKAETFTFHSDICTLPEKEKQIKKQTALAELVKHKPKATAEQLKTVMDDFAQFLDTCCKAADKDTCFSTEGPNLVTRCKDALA
Protocol: as §7

HSA = system: HSA
Protocol: (§8) All samples were degassed, and ITC was performed at room temperature as previously described using MicroCal VP-ITC calorimeter. […] The data were analyzed using a single-site binding model provided in the ITC analysis software package. […] The values for ΔH, Kd and stoichiometry averaged ± standard deviation. […] The values for stoichiometry and binding affinity were derived from the ITC experiments.
While the presence of other ligands would increase the proportion of free floating GML unbound to albumin, we assumed there were no other albumin ligands present in the system to simplify our calculations.
(PDF) Click here for additional data file.

[6] = molecular target: T4, rabbit serum albumin (RSA) (Oryctolagus cuniculus, UniProt P49065); experiment: Isothermal titration calorimetry with rabbit serum albumin; format: binding
T4 construct: purchased Sigma Aldrich
T4 sequence (P49065 25-608): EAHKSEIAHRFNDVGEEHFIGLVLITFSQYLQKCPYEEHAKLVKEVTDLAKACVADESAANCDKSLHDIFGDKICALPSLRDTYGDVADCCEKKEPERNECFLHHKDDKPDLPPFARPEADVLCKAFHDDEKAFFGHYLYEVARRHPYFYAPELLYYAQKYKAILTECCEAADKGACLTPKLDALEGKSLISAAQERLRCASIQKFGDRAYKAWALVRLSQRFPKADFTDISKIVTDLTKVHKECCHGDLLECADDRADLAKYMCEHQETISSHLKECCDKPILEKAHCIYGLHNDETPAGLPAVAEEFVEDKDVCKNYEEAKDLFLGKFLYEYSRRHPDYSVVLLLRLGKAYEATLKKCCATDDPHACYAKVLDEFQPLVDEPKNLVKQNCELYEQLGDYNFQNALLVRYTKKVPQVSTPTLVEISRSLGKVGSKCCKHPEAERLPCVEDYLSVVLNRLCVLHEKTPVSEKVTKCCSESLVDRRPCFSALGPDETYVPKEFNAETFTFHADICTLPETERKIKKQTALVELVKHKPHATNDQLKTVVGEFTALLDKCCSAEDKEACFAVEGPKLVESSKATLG
Protocol: as §7

LAT pY226 microclusters = experiment: TIRF microscopy of LAT microcluster formation in APBTs; format: cell-based, human
Protocol: as §4, §5, §6

total AKT microclusters = experiment: TIRF microscopy of AKT microcluster formation in APBTs; format: cell-based, human
Protocol: as §4, §5, §6

[7] = molecular target: human serum albumin (HSA) (Homo sapiens, UniProt P02768); experiment: Isothermal titration calorimetry with human serum albumin; details: for ΔH: room temperature, pH 7.4
Sequence of human serum albumin (HSA) (P02768 25-609): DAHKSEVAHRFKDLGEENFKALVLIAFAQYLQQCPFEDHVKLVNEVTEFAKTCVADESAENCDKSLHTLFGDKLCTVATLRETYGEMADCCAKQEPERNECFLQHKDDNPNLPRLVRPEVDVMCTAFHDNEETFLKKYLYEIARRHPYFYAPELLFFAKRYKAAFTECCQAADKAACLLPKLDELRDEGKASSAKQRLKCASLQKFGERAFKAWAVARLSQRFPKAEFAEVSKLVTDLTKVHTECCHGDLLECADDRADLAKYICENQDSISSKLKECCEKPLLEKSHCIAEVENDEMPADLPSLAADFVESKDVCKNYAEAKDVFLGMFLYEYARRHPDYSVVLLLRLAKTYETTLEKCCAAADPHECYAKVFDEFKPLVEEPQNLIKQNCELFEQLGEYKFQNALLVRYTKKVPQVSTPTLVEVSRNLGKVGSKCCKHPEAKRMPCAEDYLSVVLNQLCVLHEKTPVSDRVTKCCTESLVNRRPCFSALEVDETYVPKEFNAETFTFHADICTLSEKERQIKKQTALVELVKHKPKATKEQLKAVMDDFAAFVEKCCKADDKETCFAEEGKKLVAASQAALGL
Protocol: as §8
150 μM of ethanol solubilized GML was placed in the syringe and injected into the sample chamber twenty one times with 180 seconds interval between injections.

[8] = GML doses 10 μg/ml or greater, absence of serum albumin, anti-CD3 24 hours
[9] = 10 μg/ml GML, serum free media, significant at 5 and 15 minutes post stimulation
[10] = ITC, single-site model, 5 μM albumin, 150 μM ligand

CCCCCCCCCCCC(=O)OCC(O)CO (stereo not shown) [GML, Glycerol monolaurate]
TNF-α production vs GML in serum free media (TNF-α production; 10 and 20 μg/ml GML, all concentrations of HSA): significantly increased
TNFα production vs ethanol control (TNF-α production; [8]): significantly reduced
IL-10 production vs control APBTs (IL-10 production; 10 μg/ml GML, all doses of HSA): significantly increased
IL-10 production vs GML in serum free media (IL-10 production; 20 μg/ml GML, all concentrations of HSA tested): did not restore
IL-10 production vs ethanol control (IL-10 production; [8]): significantly reduced
aqueous solubility cap ([1]; aqueous, under 37°C, stated as a fact, no reference printed for it): 100 µg/mL (≈ 364 µM)
solubility in gel formulations ([1]; topical GML in gel formulations ref [3],[19]): up to 50 mg/ml
IFN-γ production vs GML treatment alone (IFN-γ production; 1% or 0.2% HSA, 10 μg/ml GML): significant restoration
IFN-γ production vs GML treatment alone (IFN-γ production; 2% HSA, both GML doses (10 and 20 μg/ml)): significantly restored
IFNγ production vs ethanol control (IFN-γ production; [8]): significantly reduced
IL-2 production vs GML in serum free media (IL-2 production; 10 μg/ml GML, 2% and 1% HSA): significantly increased
IL-2 production vs GML in serum free conditions (IL-2 production; 20 μg/ml GML, all HSA doses): did not have significantly increased
IL-2 production vs ethanol control (IL-2 production; [8]): significantly reduced
AKT T308 phosphorylation vs GML alone ([2]; 10 μg/ml GML in 1% HSA, 5 and 15 minutes post stimulation): significantly increased
AKT S473 phosphorylation vs GML alone ([2]; 10 μg/ml GML in 1% HSA, 15 minutes post stimulation): significantly increased
phosphorylation of both AKT residues (T308, S473) post stimulation vs GML treated cells ([2]; 10 μg/ml GML in 1% HSA, below levels in ethanol control): modest increase
AKT S473 phosphorylation vs ethanol control [2, 9]: drastically suppressed
AKT T308 phosphorylation vs ethanol control [2, 9]: drastically suppressed
PLC-γ1 clustering ([3]; 10 μg/ml GML alone): inhibits
PLC-γ1 clustering in GML treated cells ([3]; 10 μg/ml GML with 1% HSA): relieves this inhibition
Kd [4]: 2.2 ± 1.1 µM
ΔH ([4]; ITC, single-site model, BSA): -4.5 ± 0.77 kcal/mol
Kd (pig serum albumin (PSA)): 4.5 ± 1.6 µM
ΔH (pig serum albumin (PSA); ITC, single-site model, PSA): -2.0 ± 0.63 kcal/mol
Kd [5]: 6.3 ± 2.7 µM
ΔH ([5]; ITC, single-site model, MSA): -4.9 ± 1.1 kcal/mol
GML molecules bound to HSA (HSA; 10 and 20 μg/ml GML, all HSA concentrations, no other ligands assumed): > 90%
GML bound to albumin (HSA; low-albumin sites (urine, vaginal secretions, CSF etc.), GML doses less than 20 μg/ml): mostly bound
albumin bound to GML (HSA; lymphatic fluid, albumin 40% to 90% of the serum concentration): > 99%
GML molecules bound to albumin (HSA; plasma albumin 35 to 50 g/L, concentrations where GML is soluble, Kd 1.4 μM): > 99%
concentration of GML-HSA complexes relative to free GML molecules (HSA; skin wound exudate albumin 10 to 30 g/L, GML doses between 500 to 5000 μg/ml): within one order of magnitude
GML molecules bound to HSA (HSA; skin wound exudate albumin 10 to 30 g/L, GML doses greater than 5000 μg/ml): < 2%
GML bound to HSA (HSA; skin wound exudate albumin 10 to 30 g/L, GML doses less than 500 μg/ml): > 90%
Kd [6]: 5.4 ± 1.3 µM
ΔH ([6]; ITC, single-site model, RSA): -4.5 ± 0.61 kcal/mol
LAT microcluster formation in GML treated cells (LAT pY226 microclusters; 10 μg/ml GML in 1% HSA, to levels similar to ethanol and HSA controls): significantly increased
LAT clustering at the membrane (LAT pY226 microclusters; 10 μg/ml GML, serum free media): drastically decreased
AKT clustering (total AKT microclusters; 10 μg/ml GML alone): inhibits
AKT clustering in GML treated cells (total AKT microclusters; 10 μg/ml GML with 1% HSA): relieves this inhibition
ΔH [7, 10]: -3.0 ± 1.1 kcal/mol
Kd ([7]; Kd, ITC, single-site model, 5 μM albumin, 150 μM ligand): ~1.4 µM and 1.4 µM

CCCCCCCCCCCC(=O)O [LA, Lauric acid]
Kd [7, 10]: 4.9 ± 1.1 µM
ΔH [7, 10]: -24 kcal/mol and -24 ± 0.63 kcal/mol
n (stoichiometry) ([7]; ITC, single-site model, ligand:HSA): 1.1 ± 0.4

OCC(O)CO [Glycerol, glycerol]
Kd [7]: > 50 µM
binding reaction with HSA ([7]; ITC, 5 μM HSA, 150 μM glycerol): did not have measurable binding reaction

Source: PMC5072635 (PLoS ONE, 2016)
